How the values were obtained:
[1] = test system: Sugen hypoxia model; test: Rat Sugen hypoxia model of pulmonary arterial hypertension: mean pulmonary pressure; assay type: in vivo; details: SuHx, 50 mg/kg BID gavage Day 22 to Day 56
Experimental: Animals from Groups 2 to 5 (see Table 10) receive a single subcutaneous injection of sugen (20 mg/kg in 2 mL/kg volume) solution (10 mg/mL) on Day 0 and returned to their cages. Animals from Group 1 receive one subcutaneous injection of DMSO at 2 mL/kg (vehicle for sugen) on Day 0 and returned to their respective cages.
Groups 2-5 are placed in cages for which the controlled air is adjusted to receive a FiO2 equivalent to 0.10 (10%) using a mixture of nitrogen and ambient air controlled by the ventilated cage system. They are kept under these hypoxic conditions for 21 days. While in hypoxia, cages are cleaned and changed once a week, exposing the animals to ambient oxygen levels for less than 10 minutes. They are exposed to ambient oxygen levels from Day 22 to Day 56. Group 1 animals remain in cages exposed to ambient oxygen (normoxic) levels for 56 days. The animals are observed on a daily basis for any changes in their behaviour and general health status.
(§1) Treatment with the compound A, sildenafil or vehicle is administered as of Day 22 (Groups 2-5) as scheduled and described in Table 10. The Groups 2-4 receives a single dose per day. The reference group 5 receives sildenafil twice a day. Food and water are given ad libitum. Daily observation of the behaviour and general health status of the animals is done. Weekly body weight is taken.
Surgical Instrumentation and Measurement of Hemodynamic and Functional Parameters in Efficacy Study Animals • 1. On the selected day of surgery, rats are anaesthetized with a mixture of 2 to 2.5% isoflurane USP (Abbot Laboratories, Montreal, Canada) in oxygen, and placed on a heating pad to maintain body temperature. • 2. Rats are tracheotomized and immediately ventilated by means of a positive-pressure rodent respirator set at ≈10 ml/kg body weight at a frequency of 65-70 strokes/min. • 3. Lead II ECG contact electrodes is placed on the rat to continuously monitor the ECG during the surgical procedure. • 4. A cannula connected to a pressure transducer is inserted into the left femoral artery to measure the arterial blood pressure. • 5. A cannula connected to a pressure transducer is inserted into the right atria through the right jugular vein to measure the right atria pressure. • 6. The heart is exposed through a sternotomy and a 20GA 1.16 in Insyte is introduced into the right ventricle and rapidly hooked up to a saline filled PE-50 catheter connected to a transducer. • 7. Following a few seconds of right ventricular pressure recording, the Insyte is further advanced into the pulmonary artery to allow PAP recording for an additional 60 seconds. • 8. Hemodynamic parameters are recorded continuously for the duration of the procedure or until loss of PAP signal. • 9. Following hemodynamic monitoring, chest cavity is further opened to expose the lung. The muscle over the trachea is dissected away to remove the lungs and heart. Harvested tissue is rinsed with PBS to remove any excess of blood before to be weighed. • 10. For the histology and casting of the lungs, the process is as follows; 1) eight (8) rats per group is reserved to assess the histology of the left lung and is therefore be treated as described in point 12 of this section 8.2; 2) Two (2) rats per group serve to enable quantitative characterization of the three-dimensional vascular structure of the left lung and therefore is treated as described in section 8.3 for casting of the left lung. • 11. For histology, the left lobe is inflated using a 10 mL syringe filled with fixative (10% NBF) with attached blunt tip needle (23 g). Needle tip is inserted into the trachea, held in place with tied suture while another syringe is tied to the pulmonary artery. The lung is inflated gently at physiological pressure (20-25 mmHg) until all lobes are fully, uniformly, and consistently expanded (not allowing fixative to ooze through lung surface). This provides optimal vascular and airway expansion without causing excessive tissue disruption. […]

[2] = test system: monocrotaline model of pulmonary arterial hypertension; test: Rat monocrotaline model of pulmonary arterial hypertension: mean pulmonary pressure; assay type: in vivo; details: female rat, MCT, 50 mg/kg BID gavage Day 7 to Day 28, n = 11
Experimental: • 1. The experimental trace to be analyzed is opened in Clampfit. • 2. Right atria pressure is recorded for 1 minute • 3. PAP recorded continuously for at least 1 minute or until loss of signal, is used to extract the mean, diastolic, and systolic pulmonary pressure. • 4. The systemic arterial pressure (SAP) recorded continuously is used to extract the mean, diastolic and systolic arterial pressure. • 5. At the end of the hemodynamic parameters recording, the right and left ventricle including the septum and the lung lobes is excised to determine wet weights. • 6. Each parameter is compiled for each group and presented in bar graphs with appropriate statistical analysis.
The appropriate amount of monocrotaline is weighed and ⅓ of the correct volume of 1.0N HCl is added and mixed to ensure monocrotaline solubilisation. The solution is then neutralized with ⅓ of the correct volume of 1.0 N NaOH. The pH of the solution is checked with a pH indicator paper/strip or an electronic pH meter and adjusted to neutral as necessary; the final volume is completed with water for injection to obtain a solution of 20 mg/mL. The monocrotaline solution is injected subcutaneously, over the shoulders, into the loose skin over the neck, to each rat at 3 mL/kg of body weight (dose is 60 mg/kg).
Compound A was administered as a suspension in the vehicle. To reach the required concentrations, compound A was grounded to a fine powder, using a mortar and pestle, and then mixed with 20% (final volume) of vehicle A1 until a suspension was achieved. 80% of vehicle A2 was then added to the suspension under magnetic stirring.
The appropriate amount of Sildenafil is weighed and appropriate volume of distillated water is added to obtain suspension at 5 mg/mL. The suspension is mixed with a stir bar for 30-60 minutes until a homogenous suspension is achieved. Care is taken to maintain a uniform suspension (stirring continuously) whilst doses are being drawn up into gavage syringes. One gavage syringe is filled at a time and administered before filling the next syringe. The solutions are stored refrigerated at 2 to 8° C. and protected from light. The expiration date is set at 7 days after preparation.
Animals from Groups 2 to 5 (see Table 13) receive a single subcutaneous injection of monocrotaline (60 mg/kg) solution on Day 0 and returned to their cages. Animals from Group 1 receive one subcutaneous injection vehicle for MCT on Day 0 and returned to their respective cages.
as §1, with “Day 7” for “Day 22”, “Table 13.” for “Table 10.”, “2-4 receive” for “2-4 receives”
Surgical Instrumentation and Measurement of Hemodynamic and Functional Parameters in Efficacy Study Animals • 1. On the selected day of surgery, rats are anaesthetized with a mixture of 2 to 2.5% isoflurane USP (Abbot Laboratories, Montreal, Canada) in oxygen, and placed on a heating pad to maintain body temperature. • 2. Rats are tracheotomized and immediately ventilated by means of a positive-pressure rodent respirator set at ≈10 ml/kg bodyweight at a frequency of 65-70 strokes/min. • 3. Lead II ECG contact electrodes is placed on the rat to continuously monitor the ECG during the surgical procedure. • 4. A cannula connected to a pressure transducer is inserted into the left femoral artery to measure the arterial blood pressure. • 5. A cannula connected to a pressure transducer is inserted into the right atria through the right jugular vein to measure the right atria pressure. • 6. The heart is exposed through a sternotomy and a 20GA 1.16 in Insyte is introduced into the right ventricle and rapidly hooked up to a saline filled PE-50 catheter connected to a transducer. • 7. […]

CCCc1nn(C)c2c(=O)[nH]c(-c3cc(S(=O)(=O)N4CCN(C)CC4)ccc3OCC)nc12 [Sildenafil, reference compound]
Mean Pulmonary Pressure ([1]; female rats): 22.5 mmHg | Mean Pulmonary Pressure ([1]; male rats): 30.1 mmHg | Mean Pulmonary Pressure [2]: 18.9 mmHg
